Data on 2 compounds can be found in paper PMC8980959, “Ceramide kinase regulates acute wound healing by suppressing 5-oxo-ETE biosynthesis and signaling via its receptor OXER1” (Journal of Lipid Research, 2022).

Experiment [1] concerns the target T1, ceramide kinase (CERK), mouse (Mus musculus, UniProt Q8K4Q7).
T1 sequence (Q8K4Q7 1-531): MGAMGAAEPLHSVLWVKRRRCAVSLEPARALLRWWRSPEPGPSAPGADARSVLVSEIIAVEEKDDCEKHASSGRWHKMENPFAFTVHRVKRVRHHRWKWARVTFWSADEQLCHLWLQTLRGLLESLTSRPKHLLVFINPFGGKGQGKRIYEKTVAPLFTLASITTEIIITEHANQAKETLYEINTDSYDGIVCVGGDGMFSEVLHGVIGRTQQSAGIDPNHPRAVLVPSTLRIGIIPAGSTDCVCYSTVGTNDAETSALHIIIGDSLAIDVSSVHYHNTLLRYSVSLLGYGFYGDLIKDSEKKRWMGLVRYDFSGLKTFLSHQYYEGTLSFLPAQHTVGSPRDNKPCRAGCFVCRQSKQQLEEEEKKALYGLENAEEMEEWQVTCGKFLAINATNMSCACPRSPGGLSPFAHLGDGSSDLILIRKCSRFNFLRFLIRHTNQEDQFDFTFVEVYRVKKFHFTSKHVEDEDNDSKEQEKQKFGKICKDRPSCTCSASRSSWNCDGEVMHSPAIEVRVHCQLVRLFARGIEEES
As to the kind of experiment: C1P product levels by UPLC ESI-MS/MS in mouse dermal fibroblasts, […]. The experiment is classed as cell-based.

The target of experiment [2] is T1, ceramide kinase (CERK), mouse. As to the kind of experiment: in vitro CERK activity assay. In kind it is biochemical.
Experiment [3] concerns the target T2, ceramide kinase (CERK), human (Homo sapiens, UniProt Q8TCT0).
T2 sequence (Q8TCT0 1-537): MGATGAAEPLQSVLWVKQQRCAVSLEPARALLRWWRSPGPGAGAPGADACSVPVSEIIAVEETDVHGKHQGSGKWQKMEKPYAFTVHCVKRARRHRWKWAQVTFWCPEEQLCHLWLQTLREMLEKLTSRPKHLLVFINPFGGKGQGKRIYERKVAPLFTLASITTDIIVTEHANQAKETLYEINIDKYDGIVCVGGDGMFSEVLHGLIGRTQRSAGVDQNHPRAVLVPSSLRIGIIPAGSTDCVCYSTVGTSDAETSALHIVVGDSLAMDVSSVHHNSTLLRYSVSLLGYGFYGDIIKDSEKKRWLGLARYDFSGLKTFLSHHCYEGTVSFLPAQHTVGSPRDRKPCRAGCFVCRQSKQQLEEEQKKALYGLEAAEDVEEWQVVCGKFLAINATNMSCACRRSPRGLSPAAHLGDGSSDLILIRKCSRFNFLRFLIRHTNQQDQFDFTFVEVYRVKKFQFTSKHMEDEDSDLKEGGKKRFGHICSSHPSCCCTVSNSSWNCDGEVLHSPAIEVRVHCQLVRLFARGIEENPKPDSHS
As to the kind of experiment: in vitro CERK activity assay. The experiment is classed as biochemical.

For the compound `O=C(Nc1nc2ccc(NC(=O)C34CC5CC(CC(C5)C3)C4)cc2s1)c1ccccc1` [NVP-231, N-[2-(Benzoylamino)-6-benzothiazolyl]tricyclo[3.3.1.13,7]decane-1-carboxamide], the “C1P product levels by UPLC ESI-MS/MS in mouse dermal fibroblasts, 100 nM” value in experiment [1] is “significantly reduced by SYR382141 in pDFs to an equivalent or greater extent as NVP-231”.
On to SYR382141, for which the half-inhibitory concentration (IC50) worked out at 9 nM in experiment [2] and 5 nM in experiment [3].
